Data as given in patent publication EP3130590A1, “AROMATIC AZA COMPOUNDS AS VR1/TRPV1 LIGANDS” (Grünenthal GmbH, priority 2015, dated 2017).

Biological target: T1, vanilloid receptor 1 (VR1/TRPV1 receptor) (Homo sapiens, UniProt Q8NER1)
T1 construct: expressed in transfected cells; host or cells: CHO K1
Assay: Functional testing on the vanilloid receptor 1 (FLIPR Ca2+ influx assay, capsaicin stimulation)
Format: cell-based
Conditions: capsaicin (CAP) 100 nM; for inhibition at 1 µM: @ 1 µM test compound; for inhibition at 1 µM / inhibition at 5 µM: relative to maximum achievable inhibition with 10 µM capsazepine, read-out: inhibition (in %), column (f) Ki human [nM] CAP; for inhibition at 5 µM: @ 5 µM test compound
Method: Furthermore, preference may be given to compounds according to the invention that cause a 50 per cent displacement of capsaicin, which is present at a concentration of 100 nM, in a FLIPR assay with CHO K1 cells which were transfected with the human VR1 gene at a concentration of less than 6,000 nM, preferably less than 5,000 nM, more preferably less that 3,000 nM or less than 1,000 nM and particularly preferably less than 300 nM, most particularly preferably less than 100 nM, even more preferably less than 75 nM, additionally preferably less than 50 nM, most preferably less than 10 nM.
In the process, the Ca^2+ influx is quantified in the FLIPR assay with the aid of a Ca^2+-sensitive dye (type Fluo-4, Molecular Probes Europe BV, Leiden, the Netherlands) in a fluorescent imaging plate reader (FLIPR, Molecular Devices, Sunnyvale, USA), as described hereinafter. […]
The FLIPR protocol consists of 2 substance additions. First the compounds to be tested (10 µM) are pipetted onto the cells and the Ca^2+ influx is compared with the control (capsaicin 10 µM). This provides the result in % activation based on the Ca^2+ signal after the addition of 10 µM of capsaicin (CP). After 5 min incubation, 100 nM of capsaicin are applied and the Ca^2+ influx is also determined. Desensitising agonists and antagonists lead to suppression of the Ca^2+ influx. The % inhibition is calculated compared to the maximum achievable inhibition with 10 µM of capsazepine.
Triple analyses (n=3) are carried out and repeated in at least 3 independent experiments (N=4). Starting from the percentage displacement caused by different concentrations of the compounds to be tested of general formula I, IC50 inhibitory concentrations which cause a 50% displacement of capsaicin were calculated.
Ki values for the test substances were obtained by conversion by means of the Cheng-Prusoff equation (Cheng, Prusoff; Biochem. Pharmacol. 22, 3099-3108, 1973).
The affinity of selected compounds according to the invention for the vanilloid receptor 1 (VR1/TRPV1 receptor) was determined as described hereinbefore.
The value after the "@"symbol indicates the concentration at which the indicated inhibition (in %) was respectively determined.

[1] = functional (f), Ki from IC50 by Cheng-Prusoff equation, "ne" = did not show any effect in this assay

T1 sequence (Q8NER1 whole entry): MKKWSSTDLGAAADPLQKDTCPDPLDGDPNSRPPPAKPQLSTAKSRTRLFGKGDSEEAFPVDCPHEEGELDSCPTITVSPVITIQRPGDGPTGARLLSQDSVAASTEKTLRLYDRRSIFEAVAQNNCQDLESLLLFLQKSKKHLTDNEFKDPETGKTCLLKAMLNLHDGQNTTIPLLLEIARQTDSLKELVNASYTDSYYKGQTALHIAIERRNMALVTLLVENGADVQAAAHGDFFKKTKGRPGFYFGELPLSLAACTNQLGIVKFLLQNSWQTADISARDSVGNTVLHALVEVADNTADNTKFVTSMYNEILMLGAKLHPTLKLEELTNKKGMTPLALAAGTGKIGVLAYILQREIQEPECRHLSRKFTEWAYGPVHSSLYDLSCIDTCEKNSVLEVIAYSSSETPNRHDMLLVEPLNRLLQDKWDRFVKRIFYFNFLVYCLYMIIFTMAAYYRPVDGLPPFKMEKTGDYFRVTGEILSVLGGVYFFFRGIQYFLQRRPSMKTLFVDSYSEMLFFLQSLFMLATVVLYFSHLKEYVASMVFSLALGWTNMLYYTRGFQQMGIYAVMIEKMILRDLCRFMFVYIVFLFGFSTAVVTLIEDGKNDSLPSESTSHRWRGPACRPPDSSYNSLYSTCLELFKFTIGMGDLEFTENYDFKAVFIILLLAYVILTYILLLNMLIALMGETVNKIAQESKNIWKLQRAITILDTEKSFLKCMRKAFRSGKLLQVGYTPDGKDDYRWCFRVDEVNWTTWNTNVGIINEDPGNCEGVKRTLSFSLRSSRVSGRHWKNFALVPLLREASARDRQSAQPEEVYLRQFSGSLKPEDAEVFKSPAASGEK

SMILES | Ki [1] [nM] | (f) Ki human [nM] CAP [1] | inhibition at 1 µM [%] | inhibition at 5 µM [%]
CC1CCN(c2nc(C(F)(F)F)ccc2CNC(=O)C(C)C2CCCc3ccc(O)cc32)CC1 (stereo not drawn) [comp. no. 6, 2-(7-hydroxy-1,2,3,4-tetrahydronaphthalen-1-yl)-N-((2-(4-methylpiperidin-1-yl)-6-(trifluoromethyl)pyridin-3-yl)methyl)propanamide] | 28.6 | – | – | –
CC1CCN(c2nc(C(F)(F)F)ccc2CNC(=O)NC2CCc3ccccc32)CC1 (stereo not drawn) [compound 1, 1-(2,3-dihydro-1H-inden-1-yl)-3-((2-(4-methylpiperidin-1-yl)-6-(trifluoromethyl)pyridin-3-yl)methyl)urea] | – | ne | – | –
CC1CCN(c2nc(C(F)(F)F)ccc2CNC(=O)NC2CCCc3ccccc32)CC1 (stereo not drawn) [compound 2, 1-((2-(4-methylpiperidin-1-yl)-6-(trifluoromethyl)pyridin-3-yl)methyl)-3-(1,2,3,4-tetrahydronaphthalen-1-yl)urea] | – | – | 0 | 36
CC1CCN(c2nc(C(F)(F)F)ccc2CNC(=O)NC2Cc3ccccc3C2)CC1 [compound 3, 1-(2,3-dihydro-1H-inden-2-yl)-3-((2-(4-methylpiperidin-1-yl)-6-(trifluoromethyl)pyridin-3-yl)methyl)urea] | – | – | 0 | 89
CC1CCN(c2nc(C(F)(F)F)ccc2CNC(=O)NC2CCCc3ccc(O)cc32)CC1 (stereo not drawn) [compound 4, 1-(7-hydroxy-1,2,3,4-tetrahydronaphthalen-1-yl)-3-((2-(4-methylpiperidin-1-yl)-6-(trifluoromethyl)pyridin-3-yl)methyl)urea] | 6.1 | – | – | –
CC1CCN(c2nc(C(F)(F)F)ccc2CNC(=O)NC2CCCc3c2cnn3C)CC1 (stereo not drawn) [compound 5, 1-(1-methyl-4,5,6,7-tetrahydro-1H-indazol-4-yl)-3-((2-(4-methylpiperidin-1-yl)-6-(trifluoromethyl)pyridin-3-yl)methyl)urea] | – | – | 0 | 27
